How the values were obtained:
DOR (δ opioid receptor) = target: T1, DOR (δ opioid receptor) (Homo sapiens, UniProt P41143); assay: DOR radioligand binding ([3H]-DADLE, HEK293 cell homogenates); conditions: Percent inhibition at 10,000 nM; [3H]-DADLE
T1 construct: expressed in transfected cells; host or cells: HEK293
Description: (§1) Radioligand binding assays. Detailed protocols for the primary and secondary radioligand binding assays can be found in the National Institute of Mental Health's Psychoactive Drug Screening Program (NIMH PDSP) Assay Protocol Book (Roth, 2018). Briefly, primary and secondary radioligand binding assays are carried out in a final of volume of 125 μL per well in appropriate binding buffer. […] Total binding and nonspecific binding are determined in the absence and presence of 10 μM of appropriate reference compound (Naltrindole DOR, Salvinorin A KOR and DAMGO MOR). In brief, plates are usually incubated at room temperature and in the dark for 90 min. Reactions are stopped by vacuum filtration onto 0.3% polyethyleneimine (PEI) soaked 96-well filter mats using a 96-well Filtermate harvester, followed by three washes with cold PBS buffer. Scintillation cocktail is then melted onto the microwave-dried filters on a hot plate and radioactivity counted in a Microbeta counter. The data (n=6) were analyzed by nonlinear regression.
(§2) Ligand affinities were determined for KOR (κ opioid receptor), DOR (δ opioid receptor), and MOR (μ opioid receptor) using radioligand binding assays at a screening concentration of 10,000 nM. For these assays, cell homogenates from HEK293 cells that overexpressed KOR, MOR, and DOR were used in combination with [^3H]-U69593, [^3H]-DAMGO, and [^3H]-DADLE, respectively Compounds that exceeded more than 50% radioligand displacement were investigated further in concentration-dependent experiments to determine Ki values. Gamma aminobutyric acid type A receptor (GABAAR) binding was determined with rat brain homogenate and ^3H-flunitrazepam. Flunitrazepam binds GABAAR subtypes that consists of two α and two β subunits and one γ or δ subunit. Strong affinities to α1-3,5,6β1-3γ1-y/δ GABAARS have been reported for flunitrazepam. The […] GABAAR subtype expression in the brain includes 43% α1β2γ2, 15% α2β3γ2+8% α2βγ1, 10% α3β3γ2, 6% α4βγ/δ, 4% α5β3γ2, and 4% α6β2γ2/δ. Therefore, compounds with high affinity toward the synaptic benzodiazepine-sensitive receptors (BZR) predominately bind α1-3β2-3γ1-2 GABAARs. Alternatively, compounds with weak BZR binding might be selective for α4-6βγ/δ GABAARs.
(§3) Psychoactive Drug Screening Program. Detailed protocols for the primary and secondary radioligand binding assays can be found in the National Institute of Mental Health's Psychoactive Drug Screening Program (NIMH PDSP) Assay Protocol Book. Briefly, primary and secondary radioligand binding assays are carried out in a final of volume of 125 μL per well in appropriate binding buffer. The radioactive ligand concentration is close to the Kd. Total binding and nonspecific binding are determined in the absence and presence of 10 μM of appropriate reference compound, respectively. In brief, plates are usually incubated at room temperature and in the dark for 90 min. Reactions are stopped by vacuum filtration onto 0.3% polyethyleneimine (PEI) soaked 96-well filter mats using a 96-well Filtermate harvester, followed by three washes with cold PBS buffer. Scintillation cocktail is then melted onto the microwave-dried filters on a hot plate and radioactivity counted in a Microbeta counter. The data (n=6) were analyzed by nonlinear regression.

[1] = system: BZR (benzodiazepine site of GABAAR); assay: GABAAR/BZR binding, rat brain homogenate with 3H-flunitrazepam; conditions: rat brain homogenate, 3H-flunitrazepam; for BZR %: Percent inhibition at 10,000 nM
Description: as §2, §3

KOR (κ opioid receptor) = target: T2, KOR (κ opioid receptor) (Homo sapiens, UniProt P41145); assay: KOR radioligand binding ([3H]-U69593, HEK293 cell homogenates); conditions: [3H]-U69593; for Ki: concentration-dependent, read-out: KOR (Ki)
T2 construct: expressed in transfected cells; host or cells: HEK293 (stably transfected)
Description: as §1, §2, §3

MOR (μ opioid receptor) = target: T3, MOR (μ opioid receptor) (Homo sapiens, UniProt P35372); assay: MOR radioligand binding ([3H]-DAMGO, HEK293 cell homogenates); conditions: Percent inhibition at 10,000 nM; [3H]-DAMGO
T3 construct: expressed in transfected cells; host or cells: HEK293
Description: as §1, §2, §3

Mouse microglia = assay: NO production (Griess assay), LPS/IFNγ-activated mouse microglia; type: cell-based; conditions: with 50 μM MP-IV-010; flumazenil 50 μM, picrotoxin 50 μM, bicuculline 100 μM, SM-21 30 μM, norbinaltorphimine 30 μM
Description: Next, a library of GABAAR ligands was investigated to identify compounds that reduce the production of NO as a marker of anti-inflammatory activity. […] NO was quantified with a Greiss assay. Cell viability was determined with CellTiter-Glo.
Cell culture. A) HMC3 Microglia (CRL-3304) were maintained in treated cell culture flasks (Nunc, 156472) with EMEM (Corning, 10010CV) supplemented with 10% heat-inactivated FBS (Corning, 35011CV) and 100 U/mL penicillin and 100 μg/mL streptomycin (Hyclone, SV30010). Cultures were maintained at 37° C. and 5% CO2. When cells reached a density of 7×10^4 cells/mL, cultures were passaged with 0.25% Trypsin (Corning, 25-053-CI) and resuspended to a density no lower than 10,000 cells/mL. B) Human and mouse microglia cell lines were a gift from Dr. David Alvarez-Carbonell at Case Western Reserve University (Cleveland, OH). Microglia were cultured in cell culture treated flasks (Nunc, 156472) with DME/F12 media (Hyclone, SH30023.01) supplemented with 10% heat-inactivated FBS (Corning, 35011CV), 100 U/mL penicillin/100 μg/mL streptomycin (Hyclone, SV30010), and Normocin (Invivogen, ant-nr). Cultures were maintained at 37° C. and 5% CO2. […] Cultures were maintained at 37° C. and 5% CO2. Cells were passaged when they reached a density of approximately 3×10^6 cells/mL using cell scrapers (VWR, 10062-906) to lift cells from flask surface and resuspended at densities of approximately 500,000 cells/mL.
Nitric oxide production (Griess assay) and viability assay (CellTiter-Glo). 80 μL of mouse microglia culture (1×10^6 cells/mL) was plated into sterile 384 well plates representing non-activated wells. The remaining culture was activated with 50 ng/ml LPS (Invivogen, NC9836) and 150 U/mL IFNγ (R&D Systems, 485MI100) and distributed into the 384 well plates. […] Assay plates were incubated for approximately 24 hours (unless otherwise noted) at 37° C., centrifuged, and 40 μL of supernatant transferred to a new plate for analysis using the Griess Assay (Promega, Madison, WI). Absorbance at 530 nm was measured using a TECAN Infinite M1000 plate reader. The remaining 40 μL containing cells was analyzed for toxicity by the CellTiter-Glo Assay (Promega, Madison, WI). Luminescence was read using a TECAN Infinite M1000 plate reader.

[2] = Percent inhibition at 10,000 nM

T3 sequence (P35372 whole entry, species assumed): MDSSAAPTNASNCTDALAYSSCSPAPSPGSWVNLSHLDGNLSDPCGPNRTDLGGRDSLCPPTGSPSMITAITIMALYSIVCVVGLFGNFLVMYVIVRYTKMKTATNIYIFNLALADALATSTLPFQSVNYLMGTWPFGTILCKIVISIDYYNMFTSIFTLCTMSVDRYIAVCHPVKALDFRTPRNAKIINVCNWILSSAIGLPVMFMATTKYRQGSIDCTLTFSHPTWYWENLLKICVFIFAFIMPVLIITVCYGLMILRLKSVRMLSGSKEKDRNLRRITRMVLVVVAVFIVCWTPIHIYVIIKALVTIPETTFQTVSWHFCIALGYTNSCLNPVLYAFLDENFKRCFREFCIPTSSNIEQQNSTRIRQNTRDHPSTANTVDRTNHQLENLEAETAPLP
T1 sequence (P41143 whole entry): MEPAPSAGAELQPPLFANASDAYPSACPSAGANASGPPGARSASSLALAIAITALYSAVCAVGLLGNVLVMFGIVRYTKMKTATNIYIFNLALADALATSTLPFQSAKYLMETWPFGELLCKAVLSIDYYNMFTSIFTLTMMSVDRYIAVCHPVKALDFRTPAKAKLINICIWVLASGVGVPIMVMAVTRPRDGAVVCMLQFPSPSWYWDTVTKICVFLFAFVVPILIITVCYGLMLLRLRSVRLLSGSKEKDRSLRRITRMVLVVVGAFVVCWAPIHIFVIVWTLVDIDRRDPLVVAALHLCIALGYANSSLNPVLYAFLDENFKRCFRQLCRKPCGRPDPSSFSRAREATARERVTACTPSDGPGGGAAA
T2 sequence (P41145 whole entry): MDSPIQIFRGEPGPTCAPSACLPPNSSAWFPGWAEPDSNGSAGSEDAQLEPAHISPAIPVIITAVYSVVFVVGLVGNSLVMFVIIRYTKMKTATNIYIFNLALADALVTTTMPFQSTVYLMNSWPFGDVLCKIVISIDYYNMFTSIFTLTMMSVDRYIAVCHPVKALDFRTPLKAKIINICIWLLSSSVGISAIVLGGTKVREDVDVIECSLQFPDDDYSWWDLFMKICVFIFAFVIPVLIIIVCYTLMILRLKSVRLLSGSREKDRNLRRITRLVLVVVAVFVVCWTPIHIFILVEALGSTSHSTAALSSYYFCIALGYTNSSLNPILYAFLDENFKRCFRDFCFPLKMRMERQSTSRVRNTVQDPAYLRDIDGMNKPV

| Compound | inhibition at 10 µM (DOR (δ opioid receptor)) [%] | BZR % [1] [%] | Ki [1] [nM] | inhibition at 10 µM (KOR (κ opioid receptor); [2]) [%] | Ki (KOR (κ opioid receptor)) [nM] | inhibition at 10 µM (MOR (μ opioid receptor)) [%] | reversal of the NO reduction by MP-IV-010 (in words) (Mouse microglia) | DOR % (DOR (δ opioid receptor)) [%] | KOR % (KOR (κ opioid receptor); [2]) [%] | MOR % (MOR (μ opioid receptor)) [%] |
| --- | --- | --- | --- | --- | --- | --- | --- | --- | --- | --- |
| C#Cc1ccc2c(c1)C(c1ccccc1F)=N[C@@H](C)c1c(C(=O)OCC(F)(F)F)ncn1-2 [GL-I-36] | 0 | 77 | 418 | 85 | 411 | 8 | – | – | – | – |
| C#Cc1ccc2c(c1)C(c1ccccc1F)=N[C@@H](C)c1c(C(=O)OCC)ncn1-2 [SH-053-2′F-S-CH3] | 36 | 92 | 111 | 93 | 90 | 7 | – | – | – | – |
| C#Cc1ccc2c(c1)C(c1ccccc1F)=N[C@H](C)c1c(C(N)=O)ncn1-2 [MP-III-019.B] | 0 | 94 | 54 | 62 | 1530 | 2 | – | – | – | – |
| C#Cc1ccc2c(c1)C(c1ccccc1F)=N[C@@H](C)c1c(C(=O)OC3CC3)ncn1-2 [GL-I-38] | 16 | 96 | 127 | 95 | 68 | 18 | – | – | – | – |
| CCC(Oc1ccc(Cl)cc1)C(=O)OC1CC2CCC(C1)N2C (centres unmarked) [SM-21, reference compound] | – | – | – | – | – | – | no reversal | – | – | – |
| Oc1ccc2c3c1O[C@H]1c4[nH]c5c(c4C[C@@]4(O)[C@@H](C2)N(CC2CC2)CC[C@]314)C[C@@]1(O)[C@H]2Cc3ccc(O)c4c3[C@@]1(CCN2CC1CC1)[C@H]5O4 [norbinaltorphimine, reference compound] | – | – | – | – | – | – | reversed the effects of MP-IV-010 | – | – | – |
| C#Cc1ccc2c(c1)C(c1ccccc1F)=N[C@@H](C)c1c(C(=O)SCC)ncn1-2 [GL-I-77] | 4 | 92 | 124 | 95 | 125 | 41 | – | – | – | – |
| CCOC(=O)c1ncn2c1CN(C)C(=O)c1cc(F)ccc1-2 [flumazenil, Flumazenil, reference compound] | – | – | – | – | – | – | did not reverse | – | – | – |
| C#Cc1ccc2c(c1)C(c1ccccn1)=NCc1c(C(=O)OC(C)C)ncn1-2 [MP-II-068] | 34 | 97 | 42 | 85 | 550 | 0 | – | – | – | – |
| C#Cc1ccc2c(c1)C(c1ccccc1F)=N[C@H](C)c1c(C(=O)N3CCCC3)ncn1-2 [GL-II-76] | 0 | 43 | – | 80 | 371 | 0 | – | – | – | – |
| C#Cc1ccc2c(c1)C(c1ccccc1F)=N[C@@H](C)c1c(C(N)=O)ncn1-2 [MP-III-018.B] | 10 | 97 | 17 | 51 | 2780 | 2 | – | – | – | – |
| C#Cc1ccc2c(c1)C(c1ccccc1F)=N[C@@H](C)c1c(C(=O)OC(C)C)ncn1-2 [GL-I-31] | 8 | 97 | 245 | 94 | 65 | 32 | – | – | – | – |
| C#Cc1ccc2c(c1)C(c1ccccn1)=NCc1c(C(=O)O)ncn1-2 [SR-II-54] | 1 | 80 | 69 | 9 | – | 8 | – | – | – | – |
| Brc1ccc2c(c1)C(c1ccccc1)=NCc1c(-c3cnco3)ncn1-2 [KRM-II-73] | 32 | 97 | 45 | 83 | 736 | 11 | – | – | – | – |
| C#Cc1ccc2c(c1)C(c1ccccn1)=N[C@H](C)c1c(C(=O)O)ncn1-2 [GL-II-30] | 4 | 65 | 431 | 0 | – | 20 | – | – | – | – |
| Cc1ncoc1-c1ncn2c1CN=C(c1ccccc1F)c1cc(Br)ccc1-2 [KRM-III-59] | – | 96 | 20 | – | 408 | – | – | 11 | 73 | 0 |
| C#Cc1ccc2c(c1)C(c1ccccc1F)=N[C@@H](C)c1c(C(=O)N(C)C)ncn1-2 [GL-I-54] | 11 | 94 | 90 | 78 | 788 | 18 | – | – | – | – |
| picrotoxin [reference compound] | – | – | – | – | – | – | did not reverse | – | – | – |
| C#Cc1ccc2c(c1)C(c1ccccn1)=NCc1c(C(=O)OCC)ncn1-2 [Hz-166] | 49 | – | – | 60 | 3820 | 6 | – | – | – | – |

— patent US20240279232A1, “USE OF SUBSTITUTED 5-(4-METHYL-6-PHENYL-4H-BENZO[F]IMIDAZO[1,5-A][1,4] DIAZEPIN-3-YL)-1,2,4-O[…] THE TREATMENT OF INFLAMMATORY CONDITIONS” (priority 2021, published 2024)
